Source: PubChem BioAssay AID1963847 (Molecular Pharmacology Branch, DTP, NCI, 2024)
Where “and” joins values, the source holds several entries; their conditions need not be identical. Identical values can stand only once.

Tested on: 415267-285-R-J2-PDC complex spheroid viability
Test: Anticancer human tumor 415267-285-R-J2-PDC patient-derived breast carcinoma cell line growth inhibition [POLQ]
Details: for viability, T/C: stronger effect = lower value
Experimental: Multicellular complex tumor spheroid response to Polymerase (POL) inhibitors (novobiocin, ART-558, RP6685) in combination with a variety of drugs and investigational agents in selected tumor cell lines
The POL inhibitors (novobiocin, ART-558, and RP6685) were evaluated both individually and in combination with standard of care and investigational anticancer small molecules within a complex spheroid model of solid tumors. . Complex spheroids include a stromal component modeled by human endothelial cells (HUVEC) and fibroblasts modeled by human mesenchymal stem cells (MSCs). The concentration ranges selected for each drug and investigational agent were based upon clinically achievable concentrations if the clinical Cmax of the agent was known.
Compounds. The drugs and investigational agents: novobiocin (NSC847541), ART-558 (NSC835418), RP-6685 (NSC848927), peposertib (NSC802822), ceralasertib (NSC780249), elimusertib (NSC800525), camonsertib (NSC841442), AZD-1390 (NSC803789), olaparib (NSC753686), talazoparib (NSC767125), rucaparib (NSC756644), sotorasib (NSC818433), MRTX-1133 (NSC836407), SN-38 (NSC673596), topotecan (NSC609699), epotoside (NSC141540), doxorubicin (NSC123127), gemcitabine (NSC613327), 5-fluorouracil (NSC19893), paclitaxel (NSC125973), vemurafenib (NSC761431), MSA-2 (NSC828583), SN-011 (NSC837082), adavosertib (NSC754352), prexasertib (NSC758257), carboplatin (NSC241240) and oxaliplatin (NSC266046), were obtained from the National Cancer Institute (NCI) Developmental Therapeutics Program Chemical Repository (21). The FDA-approved anticancer drug set is available from the Developmental Therapeutics Program at https://dtp.cancer.gov/organization/dscb/obtaining/. […] The stock solutions were prepared in dimethyl sulfoxide (DMSO, Sigma-Aldrich, St. Louis, MO, cat. D2650), except for the platinum compounds which were prepared in saline (Quality Biological, Gaithersburg, MD, cat. 114-055-101), at 800-fold the tested concentration and stored at -70 degrees C prior to their use. All drugs and investigational agents were tested over a range starting from a high concentration at or near the clinical Cmax and decreasing in half-log increments. If the clinical Cmax for an agent had not been determined, the highest concentration tested was 10 microM, except for SN-38, which was tested at a high concentration of 1 microM.
Cell Culture. All cells were maintained in an incubator at 37 degrees C and 5% CO2 with 95% humidity. The PDC lines were cultured according to standard operating procedures established by the NCI PDMR (https://pdmr.cancer.gov). Table 3 of the manuscript, lists the cell lines along with the number of the three cell types plated to form the mct-spheroids and media for tumor cell growth. After thawing, all PDC lines, except 997537-175-T-J1-PDC and 415267-285-R-J2-PDC, were cultured in Matrigel-coated flasks prepared with a working solution of 1X Ham's F-12 nutrient mix, without supplementation (Thermo Fisher Scientific, cat. 11765054), 100 U/mL penicillin-streptomycin (Thermo Fisher Scientific, cat. 15140122), and 2.5% Matrigel (Corning Inc., Corning, NY, cat. 354248) for the first three passages. The two PDC lines 997537-175-T-J1-PDC and 415267-285-R-J2-PDC were cultured on uncoated flasks. The 857933-349-R-J2-PDC line was cultured in 6C/Colon 1B media containing advanced DMEM/F-12 (Thermo Fisher Scientific, cat. 12634028), 10 mM HEPES (Thermo Fisher Scientific, cat. 15630080), 1X GlutaMAX supplement (Thermo Fisher Scientific, cat. 35050061), 0.1 mg/mL primocin (InvivoGen, San Diego, CA, cat. ant-pm-2), 10% defined fetal bovine serum, heat inactivated (HyClone Laboratories Inc., Logan, UT, cat. SH30070.03HI), 50% L-WRN conditioned media (ATCC, cat. CRL-3276), 1.25 mM N-Acetyl-L-cysteine (Sigma-Aldrich, cat. A9165), 10 mM nicotinamide (Sigma-Aldrich, cat. N0636), 1X B-27 supplement (Thermo Fisher Scientific, cat. 17504044), 1X N-2 supplement (Thermo Fisher Scientific, cat. […]
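Further: spheroids exposed to compounds for one week before readout.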
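Wherever viability, T/C is given: luminescence used as stand-in measure of viable cells; 100% = DMSO vehicle control viability.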

SMILES: O=C(Nc1ccc(O)c(NS(=O)(=O)c2ccc(F)cc2)c1)c1ccc(-c2ccccc2)cc1
- viability, T/C (compound 0.0316 µM): 111% and 102% and 103%
- viability, T/C (compound 0.1 µM): 108% and 97.2% and 98.4%
- viability, T/C (compound 0.316 µM): 107% and 98.6% and 103%
- viability, T/C (compound 1 µM): 92.3% and 107% and 105%
- viability, T/C (compound 3.16 µM): 109% and 101% and 98.1%
- viability, T/C (compound 10 µM): 68.7% and 71.7% and 46.8%
- IC50 (curve of compound): > 10000 nM and 9320 nM

SMILES: CC[C@@]1(O)C(=O)OCc2c1cc1n(c2=O)Cc2cc3c(CN(C)C)c(O)ccc3nc2-1 + Nc1ccc(C#CCN(C(=O)Cc2ncc(C(F)(F)F)cc2C(F)(F)F)c2ccc(F)cc2)nn1
- IC50 (curve of first compound, second compound 0.0316 µM): 24.2 nM
- IC50 (curve of first compound, second compound 0.1 µM): 23.2 nM
- IC50 (curve of first compound, second compound 0.316 µM): 25.8 nM
- IC50 (curve of first compound, second compound 1 µM): 24.3 nM
- IC50 (curve of first compound, second compound 3.16 µM): 22.5 nM
- IC50 (curve of first compound, second compound 10 µM): 23.8 nM
- viability, T/C (second compound 0.0316 µM, first compound 0.000316 µM): 102%
- viability, T/C (second compound 0.0316 µM, first compound 0.001 µM): 101%
- viability, T/C (second compound 0.0316 µM, first compound 0.00316 µM): 98.6%
- viability, T/C (second compound 0.0316 µM, first compound 0.01 µM): 93.3%
- viability, T/C (second compound 0.0316 µM, first compound 0.0316 µM): 37%
- viability, T/C (second compound 0.0316 µM, first compound 0.1 µM): 8.63%
- viability, T/C (second compound 0.1 µM, first compound 0.000316 µM): 116%
- viability, T/C (second compound 0.1 µM, first compound 0.001 µM): 102%
- viability, T/C (second compound 0.1 µM, first compound 0.00316 µM): 96.8%
- viability, T/C (second compound 0.1 µM, first compound 0.01 µM): 98.2%
- viability, T/C (second compound 0.1 µM, first compound 0.0316 µM): 32.5%
- viability, T/C (second compound 0.1 µM, first compound 0.1 µM): 8.01%
- viability, T/C (second compound 0.316 µM, first compound 0.000316 µM): 115%
- viability, T/C (second compound 0.316 µM, first compound 0.001 µM): 98.2%
- viability, T/C (second compound 0.316 µM, first compound 0.00316 µM): 94.2%
- viability, T/C (second compound 0.316 µM, first compound 0.01 µM): 105%
- viability, T/C (second compound 0.316 µM, first compound 0.0316 µM): 38.5%
- viability, T/C (second compound 0.316 µM, first compound 0.1 µM): 5.29%
- viability, T/C (second compound 1 µM, first compound 0.000316 µM): 120%
- viability, T/C (second compound 1 µM, first compound 0.001 µM): 96.2%
- viability, T/C (second compound 1 µM, first compound 0.00316 µM): 98.8%
- viability, T/C (second compound 1 µM, first compound 0.01 µM): 101%
- viability, T/C (second compound 1 µM, first compound 0.0316 µM): 33.4%
- viability, T/C (second compound 1 µM, first compound 0.1 µM): 7.54%
- viability, T/C (second compound 3.16 µM, first compound 0.000316 µM): 107%
- viability, T/C (second compound 3.16 µM, first compound 0.001 µM): 103%
- viability, T/C (second compound 3.16 µM, first compound 0.00316 µM): 97.6%
- viability, T/C (second compound 3.16 µM, first compound 0.01 µM): 115%
- viability, T/C (second compound 3.16 µM, first compound 0.0316 µM): 26.7%
- viability, T/C (second compound 3.16 µM, first compound 0.1 µM): 9.06%
- viability, T/C (second compound 10 µM, first compound 0.000316 µM): 113%
- viability, T/C (second compound 10 µM, first compound 0.001 µM): 106%
- viability, T/C (second compound 10 µM, first compound 0.00316 µM): 98.9%
- viability, T/C (second compound 10 µM, first compound 0.01 µM): 104%
- viability, T/C (second compound 10 µM, first compound 0.0316 µM): 32.2%
- viability, T/C (second compound 10 µM, first compound 0.1 µM): 8.26%

SMILES: CC1COCCN1c1cc(C2(O)CC3CCC(C2)O3)c2cnn(-c3ccn[nH]3)c2n1 (stereo not drawn)
- viability, T/C (compound 0.0316 µM): 18.3% and 19.4% and 19.9%
- viability, T/C (compound 0.1 µM): 6.66% and 6.95% and 6.71%
- viability, T/C (compound 0.316 µM): 5.68% and 5.24% and 4.27%
- viability, T/C (compound 1 µM): 3.96% and 5.04% and 3.53%
- viability, T/C (compound 3.16 µM): 6.45% and 6.44% and 3.52%
- viability, T/C (compound 10 µM): 4.11% and 4.93% and 2.88%
- IC50 (curve of compound): < 31.6 nM

SMILES: O=C(c1cc(Cc2n[nH]c(=O)c3ccccc23)ccc1F)N1CCN(C(=O)C2CC2)CC1
- viability, T/C (compound 0.0316 µM): 92.7% and 95.5% and 108%
- viability, T/C (compound 0.1 µM): 109% and 91.4% and 105%
- viability, T/C (compound 0.316 µM): 86.8% and 95.3% and 97.5%
- viability, T/C (compound 1 µM): 87.8% and 94.8% and 102%
- viability, T/C (compound 3.16 µM): 95.3% and 95.4% and 109%
- viability, T/C (compound 10 µM): 76.9% and 90.6% and 102%
- IC50 (curve of compound): > 10000 nM
